Activity calls are given as the source filed them. How the calls were made is not given here.
Test system: rodent carcinogenicity bioassays, tumor incidence
Experiment: CCRIS carcinogenicity studies
Summary of the method: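 Archive of carcinogenicity, mutagenicity, tumor promotion and tumor inhibition results drawn from journals, NCI reports and other sources, expert-reviewed; covers 1985-2011 and is no longer updated.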

Measured: carcinogen call

CCN(CC)N=O
inactive: Species: MOUSE, Strain/Sex: C3H/FEMALE, Route: TRANSPLACENTAL, Dose: 0, 0.5 MMOL IN 0.9% STERILE SALINE (51 MG/KG) ON DAY 16 OF GESTATION (STUDY DURATION: LIFETIME) inactive; negative | Species: MOUSE, Strain/Sex: C3H/MALE, Route: TRANSPLACENTAL, Dose: 0, 0.5 MMOL IN 0.9% STERILE SALINE (51 MG/KG) ON DAY 16 OF GESTATION (STUDY DURATION: LIFETIME) inactive; negative | Species: MOUSE, Strain/Sex: C57BL/MALE, Route: INTRAPERITONEAL, Dose: 0, 12 UG ON DAYS 0, 3, 9 AND 15 (STUDY DURATION: 132 WK) inactive; negative
active: Species: MOUSE, Strain/Sex: B6C3F1/MALE, Route: INTRAPERITONEAL, Dose: 0, 12 UG ON DAYS 0, 3, 9 AND 15 (STUDY DURATION: 132 WK), Tumor Site: Type of Lesion: LIVER: TUMORS active; positive | Species: MOUSE, Strain/Sex: B6C3F2 (BRACHYMORPHIC)/MALE, Route: INTRAPERITONEAL, Dose: 0, 0.02, 0.07 UMOL/G BW IN 10 µL/G BW TRIOCTANOIN ONCE AT 12 D OF AGE (STUDY DURATION: 9 MO), Dose: 0, 0.02, 0.07 UMOL/G BW IN 10 µL/G BW TRIOCTANOIN ONCE AT 12 D OF AGE (STUDY DURATION: 9 MO), Tumor Site: Type of Lesion: LIVER: HEPATOMA active; positive | Species: MOUSE, Strain/Sex: BALB/C/FEMALE, Route: INTRAPERITONEAL, Dose: 0, 15, 90 MG/KG ONCE (STUDY DURATION: 18 MONTHS), Dose: 0, 15, 90 MG/KG ONCE (STUDY DURATION: 18 MONTHS), Tumor Site: Type of Lesion: LUNG: TUMOR active; positive | Species: MOUSE, Strain/Sex: C3AF1/FEMALE, Route: INTRAPERITONEAL, Dose: 0, 1.5, 3 UG IN 0.01 ML TRIOCTANOIN/G BW INITIAL DOSE GIVEN ON DAY 1 OF AGE AND 3 SUBSEQUENT DOSES GIVEN 3, 9 AND 15 DAY, Dose: 0, 1.5, 3 UG IN 0.01 ML TRIOCTANOIN/G BW INITIAL DOSE GIVEN ON DAY 1 OF AGE AND 3 SUBSEQUENT DOSES GIVEN 3, 9 AND 15 DAY, Tumor Site: Type of Lesion: LIVER: ADENOMA, CARCINOMA, LUNG: TUMORS active; positive | Species: MOUSE, Strain/Sex: C3AF1/FEMALE, Route: INTRAPERITONEAL, Dose: 0, 1.5, 3 UG IN 0.01 ML TRIOCTANOIN/G BW INITIAL DOSE GIVEN ON DAY 15 OF AGE AND 3 SUBSEQUENT DOSES GIVEN 3, 9 AND 15 DA, Dose: 0, 1.5, 3 UG IN 0.01 ML TRIOCTANOIN/G BW INITIAL DOSE GIVEN ON DAY 15 OF AGE AND 3 SUBSEQUENT DOSES GIVEN 3, 9 AND 15 DA, Tumor Site: Type of Lesion: LIVER: ADENOMA, CARCINOMA, LUNG: TUMORS active; positive | Species: MOUSE, Strain/Sex: C3AF1/FEMALE, Route: INTRAPERITONEAL, Dose: 0, 1.5, 3 UG IN 0.01 ML TRIOCTANOIN/G BW INITIAL DOSE GIVEN ON DAY 42 OF AGE AND 3 SUBSEQUENT DOSES GIVEN 3, 9 AND 15 DA, Dose: 0, 1.5, 3 UG IN 0.01 ML TRIOCTANOIN/G BW INITIAL DOSE GIVEN ON DAY 42 OF AGE AND 3 SUBSEQUENT DOSES GIVEN 3, 9 AND 15 DA, Tumor Site: Type of Lesion: LUNG: TUMORS active; positive | Species: MOUSE, Strain/Sex: C3AF1/MALE, Route: INTRAPERITONEAL, Dose: 0, 1.5, 3 UG IN 0.01 ML TRIOCTANOIN/G BW INITIAL DOSE GIVEN ON DAY 1 OF AGE AND 3 SUBSEQUENT DOSES GIVEN 3, 9 AND 15 DAY, Dose: 0, 1.5, 3 UG IN 0.01 ML TRIOCTANOIN/G BW INITIAL DOSE GIVEN ON DAY 1 OF AGE AND 3 SUBSEQUENT DOSES GIVEN 3, 9 AND 15 DAY, Tumor Site: Type of Lesion: LIVER: ADENOMA, CARCINOMA, LUNG: TUMORS active; positive | Species: MOUSE, Strain/Sex: C3AF1/MALE, Route: INTRAPERITONEAL, Dose: 0, 1.5, 3 UG IN 0.01 ML TRIOCTANOIN/G BW INITIAL DOSE GIVEN ON DAY 15 OF AGE AND 3 SUBSEQUENT DOSES GIVEN 3, 9 AND 15 DA, Dose: 0, 1.5, 3 UG IN 0.01 ML TRIOCTANOIN/G BW INITIAL DOSE GIVEN ON DAY 15 OF AGE AND 3 SUBSEQUENT DOSES GIVEN 3, 9 AND 15 DA, Tumor Site: Type of Lesion: LIVER: ADENOMA, CARCINOMA, LUNG: TUMORS active; positive | Species: MOUSE, Strain/Sex: C3AF1/MALE, Route: INTRAPERITONEAL, Dose: 0, 1.5, 3 UG IN 0.01 ML TRIOCTANOIN/G BW INITIAL DOSE GIVEN ON DAY 42 OF AGE AND 3 SUBSEQUENT DOSES GIVEN 3, 9 AND 15 DA, Dose: 0, 1.5, 3 UG IN 0.01 ML TRIOCTANOIN/G BW INITIAL DOSE GIVEN ON DAY 42 OF AGE AND 3 SUBSEQUENT DOSES GIVEN 3, 9 AND 15 DA, Tumor Site: Type of Lesion: LIVER: ADENOMA, CARCINOMA, LUNG: TUMORS active; positive | Species: MOUSE, Strain/Sex: C3H/FEMALE, Route: TRANSPLACENTAL, Dose: 0, 0.5 MMOL IN 0.9% STERILE SALINE (51 MG/KG) ON DAY 19 OF GESTATION (STUDY DURATION: LIFETIME), Tumor Site: Type of Lesion: LIVER: CARCINOMA, LUNG: TUMOR active; positive | Species: MOUSE, Strain/Sex: C3H/MALE, Route: INTRAPERITONEAL, Dose: 0, 12 UG ON DAYS 0, 3, 9 AND 15 (STUDY DURATION: 132 WK), Tumor Site: Type of Lesion: LIVER: TUMORS active; positive | Species: MOUSE, Strain/Sex: C3H/MALE, Route: TRANSPLACENTAL, Dose: 0, 0.5 MMOL IN 0.9% STERILE SALINE (51 MG/KG) ON DAY 19 OF GESTATION (STUDY DURATION: LIFETIME), Tumor Site: Type of Lesion: LIVER: CARCINOMA, LUNG: CARCINOMA active; positive | Species: MOUSE, Strain/Sex: C57BL/6J/FEMALE, Route: INTRAPERITONEAL, Dose: 0, 15, 90 MG/KG ONCE (STUDY DURATION: 18 MONTHS), Dose: 0, 15, 90 MG/KG ONCE (STUDY DURATION: 18 MONTHS), Tumor Site: Type of Lesion: LUNG: TUMOR active; positive | Species: MOUSE, Strain/Sex: EU-PIM-1/FEMALE, Route: GAVAGE, Dose: 0, 1, 3 MG/KG 1/D FOR 38 WK (STUDY DURATION: 38 WK), Dose: 0, 1, 3 MG/KG 1/D FOR 38 WK (STUDY DURATION: 38 WK), Tumor Site: Type of Lesion: LIVER: HEMANGIOSARCOMA, LYMPHATIC SYSTEM: LYMPHOMA active; positive | Species: MOUSE, Strain/Sex: EU-PIM-1/MALE, Route: GAVAGE, Dose: 0, 1, 3 MG/KG 1/D FOR 38 WK (STUDY DURATION: 38 WK), Dose: 0, 1, 3 MG/KG 1/D FOR 38 WK (STUDY DURATION: 38 WK), Tumor Site: Type of Lesion: LIVER: HEMANGIOSARCOMA active; positive | Species: MOUSE, Strain/Sex: SWISS/MALE, Route: INTRAGASTRIC, Dose: 0, 80, 40 MG/KG IN NORMAL SALINE ADMINISTERED WITH A 4 WK GAP BETWEEN EACH DOSE, (STUDY DURATION: 24 WK), Dose: 0, 80, 40 MG/KG IN NORMAL SALINE ADMINISTERED WITH A 4 WK GAP BETWEEN EACH DOSE, (STUDY DURATION: 24 WK), Tumor Site: Type of Lesion: LUNG: TUMOR active; positive | Species: MOUSE, Strain/Sex: SWR/FEMALE, Route: INTRAPERITONEAL, Dose: 0, 15, 90 MG/KG ONCE (STUDY DURATION: 18 MONTHS), Dose: 0, 15, 90 MG/KG ONCE (STUDY DURATION: 18 MONTHS), Tumor Site: Type of Lesion: LUNG: TUMOR active; positive | Species: RABBIT, Route: ORAL, Tumor Site: Type of Lesion: LIVER active; positive | Species: RAT, Route: INTRAPERITONEAL, RECTAL, Tumor Site: Type of Lesion: LIVER active; positive | Species: RAT, Route: INTRAVENOUS, Tumor Site: Type of Lesion: KIDNEY active; positive | Species: RAT, Route: ORAL, Tumor Site: Type of Lesion: LIVER, ESOPHAGUS, KIDNEY, NASAL CAVITY, Tumor Site: Type of Lesion: LIVER, ESOPHAGUS, KIDNEY, NASAL CAVITY active; positive | Species: RAT, Strain/Sex: F344/FEMALE, Route: INTRAVESICULAR, Dose: 0, 2.5 MG IN 0.2 ML ETHANOL: DEIONIZED WATER (1:3) 2/WK FOR 25 WK (TOTAL DOSE 1.2 MMOL) (STUDY DURATION: LIFESPAN), Tumor Site: Type of Lesion: LIVER: HEMANGIOSARCOMA, ESOPHAGUS: TUMOR active; positive | Species: RAT, Strain/Sex: F344/FEMALE, Route: ORAL, Dose: 0, 18 MG/L IN DEIONIZED DRINKING WATER DURING WK 1, 5, AND 9 (STUDY DURATION: 121 WK), Tumor Site: Type of Lesion: HEMATOPOIETIC SYSTEM: LEUKEMIA active; positive | Species: RAT, Strain/Sex: WISTAR/MALE, Route: ORAL, Dose: 0, 0.033, 0.066, 0.132, 0.264, 0.528, 1.056, 1.584, 2.112, 2.640, 3.168, 4.224, 5.280, 6.336, 8.448, 16.896 PPM IN DRINK, Dose: 0, 0.033, 0.066, 0.132, 0.264, 0.528, 1.056, 1.584, 2.112, 2.640, 3.168, 4.224, 5.280, 6.336, 8.448, 16.896 PPM IN DRINK, Tumor Site: Type of Lesion: ESOPHAGUS: TUMOR, LIVER HEPATOCELLULAR CARCINOMA active; positive

— PubChem BioAssay AID1259411 (Chemical Carcinogenesis Research Information System (CCRIS), 2018)
